Measurements: the NIST ThermoML archive (doi:10.1016/j.fluid.2007.09.002)

What was measured:
[1] = Liquid, Closed cell (Static) method
[2] = excess molar enthalpy (molar enthalpy of mixing); xn = mol fraction of the nth substance listed; details: 298.15 K, 101.3 kPa, Liquid, Flow calorimetry

CCC#CCC [3-hexyne]
[1]
Details	vapor or sublimation pressure [kPa]
263.15 K	1.613
273.15 K	3.001
283.15 K	5.293
293.15 K	8.909
298.15 K	11.38
303.15 K	14.39
313.15 K	22.4
323.15 K	33.77
333.15 K	49.44
343.15 K	70.52

CC#CCCC [2-hexyne]
[1]
Details	vapor or sublimation pressure [kPa]
263.15 K	1.372
273.15 K	2.56
283.15 K	4.532
293.15 K	7.66
298.15 K	9.804
303.15 K	12.43
313.15 K	19.45
323.15 K	29.46
333.15 K	43.35
343.15 K	62.15

CCC#CCC [3-hexyne] + CCCCOCCCC
[2]
Details	excess molar enthalpy [kJ/mol]
x1 = 0.1599	0.04
x1 = 0.2756	0.06
x1 = 0.3989	0.073
x1 = 0.496	0.077
x1 = 0.5781	0.076
x1 = 0.6579	0.068
x1 = 0.7475	0.057
x1 = 0.8783	0.035

CC#CCCC [2-hexyne] + CCCCOC
[2]
Details	excess molar enthalpy [kJ/mol]
x1 = 0.1468	-0.06
x1 = 0.3058	-0.12
x1 = 0.4949	-0.163
x1 = 0.637	-0.16
x1 = 0.7489	-0.14
x1 = 0.8444	-0.08

CCCCOC [butyl methyl ether]
[1]
Details	vapor or sublimation pressure [kPa]
263.15 K	3.054
273.15 K	5.436
283.15 K	9.207
293.15 K	14.93
298.15 K	18.73
303.15 K	23.3
313.15 K	35.15
323.15 K	51.45
333.15 K	73.31
343.15 K	101.96
